How the values were obtained:
IKKε = IKKε (Homo sapiens (Human), UniProt Q14164); assay: Lanthascreen TR-FRET kinase inhibition assay, IKKε; type: biochemical; conditions: 20 μM ATP (apparent Km), 2 nM kinase, 1 h
In short: (§1)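 TR-FRET: terbium phosphospecific antibody detects phosphorylation of 400 nM fluorescein-IkBα peptide, 20 μM ATP, 20 °C, HEPES pH 7.5 with 3% DMSO. IKKε at 2 nM, 1 h reaction; TBK1 at 8 nM, 2.5 h reaction; started by kinase addition.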

TBK1 = TBK1 (Homo sapiens (Human), UniProt Q9UHD2); assay: Lanthascreen TR-FRET kinase inhibition assay, TBK1; type: biochemical; conditions: 20 μM ATP (apparent Km), 8 nM kinase, 2.5 h
In short: as §1

Chain of IKKε (Q14164 whole entry): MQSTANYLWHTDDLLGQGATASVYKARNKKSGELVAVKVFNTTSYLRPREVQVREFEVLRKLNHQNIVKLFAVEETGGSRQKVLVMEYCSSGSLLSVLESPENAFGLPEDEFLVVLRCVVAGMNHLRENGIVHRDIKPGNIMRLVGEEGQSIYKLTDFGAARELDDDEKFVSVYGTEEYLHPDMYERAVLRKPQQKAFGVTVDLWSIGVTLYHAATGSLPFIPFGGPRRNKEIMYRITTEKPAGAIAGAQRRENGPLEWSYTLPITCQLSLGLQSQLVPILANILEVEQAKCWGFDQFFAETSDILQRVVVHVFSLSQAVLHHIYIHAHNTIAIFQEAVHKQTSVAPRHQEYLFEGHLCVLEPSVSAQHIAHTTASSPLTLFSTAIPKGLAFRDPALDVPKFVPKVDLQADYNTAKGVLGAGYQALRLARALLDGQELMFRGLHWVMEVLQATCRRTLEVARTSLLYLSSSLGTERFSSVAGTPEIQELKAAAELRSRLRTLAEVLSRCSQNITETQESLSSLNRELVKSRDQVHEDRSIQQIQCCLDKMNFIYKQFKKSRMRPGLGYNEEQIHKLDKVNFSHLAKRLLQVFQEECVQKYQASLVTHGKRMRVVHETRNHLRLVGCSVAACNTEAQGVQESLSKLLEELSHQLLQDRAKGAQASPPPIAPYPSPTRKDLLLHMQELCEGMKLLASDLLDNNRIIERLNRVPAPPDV
Chain of TBK1 (Q9UHD2 whole entry): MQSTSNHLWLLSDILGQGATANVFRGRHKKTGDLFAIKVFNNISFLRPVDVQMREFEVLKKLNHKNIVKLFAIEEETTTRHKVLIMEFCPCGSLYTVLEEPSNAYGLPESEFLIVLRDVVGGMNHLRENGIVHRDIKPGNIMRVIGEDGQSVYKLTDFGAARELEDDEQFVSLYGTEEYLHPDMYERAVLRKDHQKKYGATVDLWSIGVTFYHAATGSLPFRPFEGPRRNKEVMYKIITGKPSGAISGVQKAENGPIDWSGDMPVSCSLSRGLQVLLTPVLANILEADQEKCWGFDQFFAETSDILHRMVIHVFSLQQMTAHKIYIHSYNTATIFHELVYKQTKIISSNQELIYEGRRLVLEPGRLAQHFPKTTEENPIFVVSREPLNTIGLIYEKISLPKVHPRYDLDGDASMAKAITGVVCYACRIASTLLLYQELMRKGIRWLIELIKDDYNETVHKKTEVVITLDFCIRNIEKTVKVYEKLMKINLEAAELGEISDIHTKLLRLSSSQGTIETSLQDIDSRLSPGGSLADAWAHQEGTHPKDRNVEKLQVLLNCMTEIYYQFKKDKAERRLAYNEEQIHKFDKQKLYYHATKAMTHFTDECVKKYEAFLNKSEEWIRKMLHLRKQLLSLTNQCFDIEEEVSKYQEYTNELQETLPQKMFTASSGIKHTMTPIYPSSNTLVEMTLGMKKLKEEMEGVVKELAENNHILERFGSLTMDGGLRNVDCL

Structure (SMILES)	IC50 (IKKε)	IC50 (TBK1)
N#Cc1cc(-c2ccnc(Nc3ccc(CN4CCOCC4)nc3)n2)cnc1NCC1CCOC1 (stereo not drawn) [DMX-138, 5-[2-(6-Morpholin-4-ylmethyl-pyridin-3-ylamino)-pyrimidin-4-yl]-2-[(tetrahydro-furan-3-ylmethyl)-amino]-nicotinonitrile]	< 1000 nM	< 100 nM
CN(CCO)c1cc(Nc2nccc(-c3cnc(N4CC[C@H](F)C4)c(C#N)c3)n2)ccn1 [DMX-101, 2-((S)-3-Fluoro-pyrrolidin-1-yl)-5-(2-{2-[(2-hydroxy-ethyl)-methyl-amino]-pyridin-4-ylamino}-pyrimidin-4-yl)-nicotinonitrile]	< 30 nM	< 30 nM
CO[C@H]1CCN(Cc2ccc(Nc3nccc(-c4cnc(N5CC[C@H](F)C5)c(C#N)c4)n3)cn2)C1 [DMX-97, 2-((S)-3-Fluoro-pyrrolidin-1-yl)-5-{2-[6-((S)-3-methoxy-pyrrolidin-1-ylmethyl)-pyridin-3-ylamino]-pyrimidin-4-yl}-nicotinonitrile]	< 100 nM	< 30 nM
COCCNCc1ccc(Nc2nccc(-c3cnc(N4CC[C@H](F)C4)c(C#N)c3)n2)cn1 [DMX-77, 2-((S)-3-Fluoro-pyrrolidin-1-yl)-5-(2-{6-[(2-methoxy-ethylamino)-methyl]-pyridin-3-ylamino}-pyrimidin-4-yl)-nicotinonitrile]	< 100 nM	< 100 nM
N#Cc1nc(-c2ccnc(Nc3ccc(NC(=O)CN4CC[C@H](F)C4)nc3)n2)ccc1N1CC[C@H](F)C1 [DMX-145, N-(5-{4-[6-Cyano-5-((S)-3-fluoro-pyrrolidin-1-yl)-pyridin-2-yl]-pyrimidin-2-ylamino}-pyridin-2-yl)-2-((S)-3-fluoro-pyrrolidin-1-yl)-acetamide]	< 30 nM	< 30 nM
CN(C(=O)CN1CCOCC1)c1ccc(Nc2nccc(-c3cnc(N4CC[C@H](F)C4)c(C#N)c3)n2)cn1 [DMX-74, N-(5-{4-[5-Cyano-6-((S)-3-fluoro-pyrrolidin-1-yl)-pyridin-3-yl]-pyrimidin-2-ylamino}-pyridin-2-yl)-N-methyl-2-morpholin-4-yl-acetamide]	< 100 nM	< 100 nM
CC(Nc1ncc(-c2ccnc(Nc3ccc(CN4CCOCC4)nc3)n2)cc1C#N)C(N)=O (stereo not drawn) [DMX-134, 2-{3-Cyano-5-[2-(6-morpholin-4-ylmethyl-pyridin-3-ylamino)-pyrimidin-4-yl]-pyridin-2-ylamino}-propionamide]	< 100 nM	< 100 nM
CC(C(=O)Nc1ccc(Nc2nccc(-c3cnc(N4CC[C@H](F)C4)c(C#N)c3)n2)cn1)N1CCOCC1 (stereo partly drawn) [DMX-32, N-(5-{4-[5-Cyano-6-((S)-3-fluoro-pyrrolidin-1-yl)-pyridin-3-yl]-pyrimidin-2-ylamino}-pyridin-2-yl)-2-morpholin-4-yl-propionamide]	< 30 nM	< 30 nM
N#Cc1cc(-c2nc(Nc3ccc(CN4CCOCC4)nc3)ncc2F)cnc1N1CC[C@H](F)C1 [DMX-89, 5-[5-Fluoro-2-(6-morpholin-4-ylmethyl-pyridin-3-ylamino)-pyrimidin-4-yl]-2-((S)-3-fluoro-pyrrolidin-1-yl)-nicotinonitrile]	< 30 nM	< 15 nM
N#Cc1cc(-c2ccnc(Nc3ccc(CN4CCOCC4)nc3)n2)cnc1N1CCCOCC1 [DMX-84, 5-[2-(6-Morpholin-4-ylmethyl-pyridin-3-ylamino)-pyrimidin-4-yl]-2-[1,4]oxazepan-4-yl-nicotinonitrile]	< 100 nM	< 100 nM
CN1CCN(c2ccc(Nc3nccc(-c4cnc(N5CC[C@H](F)C5)c(C#N)c4)n3)cn2)CC1 [DMX-24, 2-((S)-3-Fluoro-pyrrolidin-1-yl)-5-{2-[6-(4-methyl-piperazin-1-yl)-pyridin-3-ylamino]-pyrimidin-4-yl}-nicotinonitrile]	< 15 nM	< 15 nM
N#Cc1cc(-c2ccnc(Nc3ccc(NC(=O)CN4CCOCC4)nc3)n2)cnc1N1CC[C@@H](F)C1 [DMX-112, N-(5-{4-[5-Cyano-6-((R)-3-fluoro-pyrrolidin-1-yl)-pyridin-3-yl]-pyrimidin-2-ylamino}-pyridin-2-yl)-2-morpholin-4-yl-acetamide]	< 15 nM	< 30 nM
